The kinase profiling compilation of Christmann-Franck et al. (2016)

Experiments:
Experiment in all cases: KINOMEscan competition binding
Details in all cases: compound 10.0 µM
[1] = target: CIT (human) (UniProt O14578)
[2] = target: JAK2 JH1 catalytic (human) (UniProt O60674)
[3] = target: NEK5 (human) (UniProt Q6P3R8)
[4] = target: STK39 (human) (UniProt Q9UEW8)
[5] = target: PHKG1 (human) (UniProt Q16816)
[6] = target: SGK110 (human) (UniProt P0C264)
[7] = tested on: KIT (human), P10721 [V559D/V654A]
[8] = target: MKNK1 (human) (UniProt Q9BUB5)
[9] = target: WEE2 (human) (UniProt P0C1S8)
[10] = target: MINK1 (human) (UniProt Q8N4C8)
[11] = tested on: EGFR (human), P00533 [747-751 del / S ins]
[12] = target: ROS1 (human) (UniProt P08922)
[13] = target: CDK19 (human) (UniProt Q9BWU1)
[14] = target: BMPR1B (human) (UniProt O00238)
[15] = target: STK32B (human) (UniProt Q9NY57)
[16] = target: TNK1 (human) (UniProt Q13470)
[17] = target: CSNK2A1 (human) (UniProt P68400)
CSNK2A1 (human), sequence (P68400 whole entry, looked up): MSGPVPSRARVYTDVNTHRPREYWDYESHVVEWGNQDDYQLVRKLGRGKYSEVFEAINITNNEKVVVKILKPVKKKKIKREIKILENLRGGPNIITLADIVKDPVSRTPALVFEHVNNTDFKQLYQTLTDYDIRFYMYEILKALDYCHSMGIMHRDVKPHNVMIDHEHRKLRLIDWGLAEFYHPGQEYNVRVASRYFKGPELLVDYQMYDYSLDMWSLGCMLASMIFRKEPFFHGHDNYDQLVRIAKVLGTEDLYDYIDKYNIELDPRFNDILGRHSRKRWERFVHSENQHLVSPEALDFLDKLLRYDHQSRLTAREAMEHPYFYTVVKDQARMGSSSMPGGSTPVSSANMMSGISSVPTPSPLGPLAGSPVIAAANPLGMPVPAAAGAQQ

[18] = target: SLK (human) (UniProt Q9H2G2)
[19] = target: PDPK1 (human) (UniProt O15530)
[20] = target: CSNK1A1L (human) (UniProt Q8N752)
[21] = target: KIT (human) (UniProt P10721)
[22] = target: TGFBR1 (human) (UniProt P36897)
[23] = target: RPS6KA1 KD2 (human) (UniProt Q15418)
RPS6KA1 KD2 (human), sequence (Q15418 whole entry, looked up): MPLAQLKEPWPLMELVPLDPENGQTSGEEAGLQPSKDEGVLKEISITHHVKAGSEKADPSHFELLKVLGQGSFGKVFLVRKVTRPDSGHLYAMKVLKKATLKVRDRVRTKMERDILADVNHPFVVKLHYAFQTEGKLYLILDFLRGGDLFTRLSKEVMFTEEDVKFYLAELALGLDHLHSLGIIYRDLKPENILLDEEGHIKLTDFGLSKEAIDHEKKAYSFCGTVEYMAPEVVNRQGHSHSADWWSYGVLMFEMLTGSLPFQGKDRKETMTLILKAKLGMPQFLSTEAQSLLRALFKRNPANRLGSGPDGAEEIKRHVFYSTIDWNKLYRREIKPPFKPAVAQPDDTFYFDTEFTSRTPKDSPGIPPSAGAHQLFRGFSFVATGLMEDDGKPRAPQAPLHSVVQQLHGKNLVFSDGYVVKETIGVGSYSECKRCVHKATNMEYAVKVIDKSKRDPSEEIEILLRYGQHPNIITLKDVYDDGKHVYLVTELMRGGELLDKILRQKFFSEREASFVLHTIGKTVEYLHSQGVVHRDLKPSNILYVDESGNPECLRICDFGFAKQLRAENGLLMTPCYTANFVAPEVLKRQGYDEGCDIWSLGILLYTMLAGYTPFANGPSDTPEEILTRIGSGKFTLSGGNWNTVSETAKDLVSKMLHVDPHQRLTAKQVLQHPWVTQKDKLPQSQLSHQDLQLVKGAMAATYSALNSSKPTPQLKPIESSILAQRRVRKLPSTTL

[24] = target: MST4 (human) (UniProt Q9P289)
[25] = target: MAP3K9 (human) (UniProt P80192)
[26] = target: TSSK1B (human) (UniProt Q9BXA7)
TSSK1B (human), sequence (Q9BXA7 whole entry, looked up): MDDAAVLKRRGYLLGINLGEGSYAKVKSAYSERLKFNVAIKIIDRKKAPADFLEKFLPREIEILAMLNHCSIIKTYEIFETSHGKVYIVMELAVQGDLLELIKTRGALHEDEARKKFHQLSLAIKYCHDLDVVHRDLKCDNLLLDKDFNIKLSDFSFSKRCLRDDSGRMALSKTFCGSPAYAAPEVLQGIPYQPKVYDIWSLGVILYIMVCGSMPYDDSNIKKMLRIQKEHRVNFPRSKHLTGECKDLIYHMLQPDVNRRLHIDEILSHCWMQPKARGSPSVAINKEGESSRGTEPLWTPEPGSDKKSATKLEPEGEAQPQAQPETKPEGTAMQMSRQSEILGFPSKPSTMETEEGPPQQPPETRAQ

[27] = target: EPHA2 (human) (UniProt P29317)
EPHA2 (human), sequence (P29317 whole entry, looked up): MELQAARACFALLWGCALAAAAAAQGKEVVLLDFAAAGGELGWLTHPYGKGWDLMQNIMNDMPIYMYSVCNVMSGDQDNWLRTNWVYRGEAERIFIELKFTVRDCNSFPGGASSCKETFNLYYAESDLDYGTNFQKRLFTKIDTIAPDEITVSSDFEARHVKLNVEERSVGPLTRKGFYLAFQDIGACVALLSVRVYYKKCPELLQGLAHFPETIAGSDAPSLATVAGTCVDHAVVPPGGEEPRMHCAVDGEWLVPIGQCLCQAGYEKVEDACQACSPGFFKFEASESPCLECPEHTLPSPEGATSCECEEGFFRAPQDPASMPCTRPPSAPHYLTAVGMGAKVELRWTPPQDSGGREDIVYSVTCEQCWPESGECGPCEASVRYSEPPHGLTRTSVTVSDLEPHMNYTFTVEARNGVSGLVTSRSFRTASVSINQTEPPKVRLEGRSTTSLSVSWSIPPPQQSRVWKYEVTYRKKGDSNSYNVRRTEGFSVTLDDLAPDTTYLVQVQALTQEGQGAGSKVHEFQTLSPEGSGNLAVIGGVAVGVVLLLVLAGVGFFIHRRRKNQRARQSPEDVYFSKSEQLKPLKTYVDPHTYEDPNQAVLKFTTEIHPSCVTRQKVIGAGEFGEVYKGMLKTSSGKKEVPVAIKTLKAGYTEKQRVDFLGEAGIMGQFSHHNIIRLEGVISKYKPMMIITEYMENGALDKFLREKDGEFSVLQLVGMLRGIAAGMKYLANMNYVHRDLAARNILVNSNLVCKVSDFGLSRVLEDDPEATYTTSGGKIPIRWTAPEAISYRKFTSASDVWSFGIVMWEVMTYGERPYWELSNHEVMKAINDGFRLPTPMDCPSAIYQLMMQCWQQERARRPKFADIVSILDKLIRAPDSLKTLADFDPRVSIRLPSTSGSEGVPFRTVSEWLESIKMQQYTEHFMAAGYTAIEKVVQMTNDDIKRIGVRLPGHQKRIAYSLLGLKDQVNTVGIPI

[28] = target: ULK3 (human) (UniProt Q6PHR2)
[29] = target: MARK3 (human) (UniProt P27448)
MARK3 (human), sequence (P27448 whole entry, looked up): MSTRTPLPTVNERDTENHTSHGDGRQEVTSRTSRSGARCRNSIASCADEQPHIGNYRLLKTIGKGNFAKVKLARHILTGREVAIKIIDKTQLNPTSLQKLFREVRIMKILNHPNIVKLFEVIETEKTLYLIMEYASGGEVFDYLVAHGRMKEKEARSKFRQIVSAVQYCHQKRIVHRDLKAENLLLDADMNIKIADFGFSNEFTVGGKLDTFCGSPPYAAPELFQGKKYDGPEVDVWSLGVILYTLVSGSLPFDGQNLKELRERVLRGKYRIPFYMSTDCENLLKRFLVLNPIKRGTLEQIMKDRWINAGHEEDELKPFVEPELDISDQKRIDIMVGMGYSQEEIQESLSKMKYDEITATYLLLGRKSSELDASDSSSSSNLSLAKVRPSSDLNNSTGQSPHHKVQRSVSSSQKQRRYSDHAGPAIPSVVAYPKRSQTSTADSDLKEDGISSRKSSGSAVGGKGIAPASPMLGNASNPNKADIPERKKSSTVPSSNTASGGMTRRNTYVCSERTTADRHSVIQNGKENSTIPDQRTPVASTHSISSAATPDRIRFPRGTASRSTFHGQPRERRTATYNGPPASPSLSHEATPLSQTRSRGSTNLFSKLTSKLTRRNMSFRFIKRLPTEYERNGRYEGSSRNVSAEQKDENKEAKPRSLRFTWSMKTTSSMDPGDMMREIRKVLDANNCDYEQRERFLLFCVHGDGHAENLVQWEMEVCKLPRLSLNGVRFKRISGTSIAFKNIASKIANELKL

[30] = target: MAPK13 (human) (UniProt O15264)
[31] = target: CDKL2 (human) (UniProt Q92772)
CDKL2 (human), sequence (Q92772 whole entry, looked up): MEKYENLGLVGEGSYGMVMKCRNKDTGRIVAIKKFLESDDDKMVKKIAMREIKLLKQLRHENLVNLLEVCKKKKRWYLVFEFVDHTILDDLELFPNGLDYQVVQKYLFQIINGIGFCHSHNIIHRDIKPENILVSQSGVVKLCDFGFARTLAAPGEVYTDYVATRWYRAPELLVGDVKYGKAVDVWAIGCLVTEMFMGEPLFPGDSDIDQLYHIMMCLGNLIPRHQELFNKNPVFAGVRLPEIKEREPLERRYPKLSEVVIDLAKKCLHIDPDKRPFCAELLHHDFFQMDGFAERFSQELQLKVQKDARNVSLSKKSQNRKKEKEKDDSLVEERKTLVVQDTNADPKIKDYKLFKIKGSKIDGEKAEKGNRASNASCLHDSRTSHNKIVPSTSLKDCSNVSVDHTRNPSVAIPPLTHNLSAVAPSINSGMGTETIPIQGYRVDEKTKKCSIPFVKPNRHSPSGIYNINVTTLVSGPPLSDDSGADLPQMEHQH

[32] = target: WEE1 (human) (UniProt P30291)
[33] = target: MAPK9 (human) (UniProt P45984)
[34] = target: DYRK1B (human) (UniProt Q9Y463)
DYRK1B (human), sequence (Q9Y463 whole entry, looked up): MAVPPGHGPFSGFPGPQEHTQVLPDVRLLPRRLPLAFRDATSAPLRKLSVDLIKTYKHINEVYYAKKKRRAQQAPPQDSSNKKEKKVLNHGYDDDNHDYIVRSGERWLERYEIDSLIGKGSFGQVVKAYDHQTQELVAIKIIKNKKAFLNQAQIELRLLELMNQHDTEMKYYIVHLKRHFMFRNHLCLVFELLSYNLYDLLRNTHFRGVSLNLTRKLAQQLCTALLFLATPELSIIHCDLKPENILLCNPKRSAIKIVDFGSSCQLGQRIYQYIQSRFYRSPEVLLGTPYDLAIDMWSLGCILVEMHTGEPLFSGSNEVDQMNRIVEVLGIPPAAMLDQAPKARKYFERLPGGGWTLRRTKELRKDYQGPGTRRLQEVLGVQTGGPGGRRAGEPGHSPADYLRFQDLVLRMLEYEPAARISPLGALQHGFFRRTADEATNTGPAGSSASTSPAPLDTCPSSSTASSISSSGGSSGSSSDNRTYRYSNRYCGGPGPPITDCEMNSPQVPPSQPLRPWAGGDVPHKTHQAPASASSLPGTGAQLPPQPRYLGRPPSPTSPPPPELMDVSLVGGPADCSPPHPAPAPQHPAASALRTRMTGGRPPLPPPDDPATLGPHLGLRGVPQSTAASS

[35] = target: FGFR2 (human) (UniProt P21802)
[36] = target: NUAK1 (human) (UniProt O60285)
[37] = target: ULK1 (human) (UniProt O75385)
[38] = target: MAK (human) (UniProt P20794)
[39] = target: MAP2K3 (human) (UniProt P46734)

NEK5 (human), sequence (Q6P3R8 whole entry, looked up): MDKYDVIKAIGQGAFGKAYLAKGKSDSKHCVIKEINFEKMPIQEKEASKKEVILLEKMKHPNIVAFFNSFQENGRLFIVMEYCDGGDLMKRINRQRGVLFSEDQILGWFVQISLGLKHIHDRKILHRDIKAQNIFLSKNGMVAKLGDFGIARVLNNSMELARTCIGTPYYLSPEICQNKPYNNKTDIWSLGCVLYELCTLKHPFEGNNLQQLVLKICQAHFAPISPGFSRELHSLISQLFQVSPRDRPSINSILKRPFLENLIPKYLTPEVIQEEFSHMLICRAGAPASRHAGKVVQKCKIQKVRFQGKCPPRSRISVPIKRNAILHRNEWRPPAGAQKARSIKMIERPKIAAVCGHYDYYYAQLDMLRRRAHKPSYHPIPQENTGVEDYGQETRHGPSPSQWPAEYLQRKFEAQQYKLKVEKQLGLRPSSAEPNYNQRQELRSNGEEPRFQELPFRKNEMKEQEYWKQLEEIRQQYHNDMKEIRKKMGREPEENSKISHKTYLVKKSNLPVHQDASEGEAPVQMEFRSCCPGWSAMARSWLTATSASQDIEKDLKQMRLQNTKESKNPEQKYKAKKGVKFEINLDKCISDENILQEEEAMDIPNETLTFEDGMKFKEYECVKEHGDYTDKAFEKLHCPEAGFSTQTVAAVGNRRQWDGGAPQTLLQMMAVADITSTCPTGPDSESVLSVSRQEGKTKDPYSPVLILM

SMILES: CN(C)C/C=C/C(=O)Nc1ccc(C(=O)Nc2cccc(Nc3nccc(-c4cccnc4)n3)c2)cc1
- kinase still bound, per cent of control [1]: 38%
- kinase still bound, per cent of control [2]: 8.4%
- kinase still bound, per cent of control [3]: 2.2%
- kinase still bound, per cent of control [4]: 58%
- kinase still bound, per cent of control [5]: 96%
- kinase still bound, per cent of control [6]: 100%
- kinase still bound, per cent of control [7]: 56%
- kinase still bound, per cent of control [8]: 42%
- kinase still bound, per cent of control [9]: 100%
- kinase still bound, per cent of control [10]: 50%
- kinase still bound, per cent of control [11]: 87%
- kinase still bound, per cent of control [12]: 76%
- kinase still bound, per cent of control [13]: 100%
- kinase still bound, per cent of control [14]: 28%
- kinase still bound, per cent of control [15]: 100%
- kinase still bound, per cent of control [16]: 20%
- kinase still bound, per cent of control [17]: 12%
- kinase still bound, per cent of control [18]: 98%
- kinase still bound, per cent of control [19]: 100%
- kinase still bound, per cent of control [20]: 100%
- kinase still bound, per cent of control [21]: 3.8%
- kinase still bound, per cent of control [22]: 100%
- kinase still bound, per cent of control [23]: 91%
- kinase still bound, per cent of control [24]: 100%
- kinase still bound, per cent of control [25]: 78%
- kinase still bound, per cent of control [26]: 100%
- kinase still bound, per cent of control [27]: 97%
- kinase still bound, per cent of control [28]: 88%
- kinase still bound, per cent of control [29]: 100%
- kinase still bound, per cent of control [30]: 100%
- kinase still bound, per cent of control [31]: 33%
- kinase still bound, per cent of control [32]: 100%
- kinase still bound, per cent of control [33]: 2.5%
- kinase still bound, per cent of control [34]: 24%
- kinase still bound, per cent of control [35]: 86%
- kinase still bound, per cent of control [36]: 61%
- kinase still bound, per cent of control [37]: 97%
- kinase still bound, per cent of control [38]: 100%
- kinase still bound, per cent of control [39]: 24%
